Active and inactive are the calls of the source.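 The calls were made as follows: active = AC50 no more than tenfold above the top dose tested, or full inhibition at every dose with a flat fit (cut at about 19 µM in these data); inconclusive = flat curve fit with inhibition between 30% and 70%, or poor fit; inactive = AC50 more than tenfold above the top dose tested.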
System: HMLE_sh_eGFP viability, CellTiter-Glo luminescence, 72 h
Assay: viability loss of HMLE_sh_eGFP cells – cell-based, luminescence, counter-screen for HMLE_sh_ECad selective toxicity project, dose response (AID 463074);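 also: counterscreen control line to flag general toxicity for the HMLE_sh_ECad screen; potency for loss of viability as luminescence drops below DMSO wells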

With Cc1ccc(-c2nc(NCc3ccco3)c3ccccc3n2)cc1 the AC50 was 12.4 µM.
For COc1ccc2nc(C)cc(N/N=C/c3ccccc3)c2c1, the AC50 was 7.36 µM.
Compound S=C(NCCC(c1ccccc1)c1ccccc1)Nc1cccc(Cl)c1 has an AC50 of 2.79 µM.
Compound COc1ccccc1/C=C/C=N/n1c(-c2n[nH]c3c2CCC3)n[nH]c1=S has an AC50 of 19.7 µM.
CC(C)CC(=O)NC(NC(=S)Nc1sc2c(c1C#N)CCCC2)C(Cl)(Cl)Cl (stereo not drawn) showed an AC50 of 10.6 µM.
Work on CCc1c(C2(O)CCCCC2)[nH]c2ccc(C(F)(F)F)cc12 yielded an AC50 of 3.56 µM.
Compound CCN1CCN(Cc2ccc(NC(=O)c3cc(NC(=O)c4cncc(-c5cccs5)c4)cc(OC)c3)cc2C(F)(F)F)CC1 has an AC50 of 3.52 µM.
COc1ccc(C2=NN(c3nc4ccccc4s3)C(=O)C2)cc1 showed an AC50 of 4.7 µM.
With O=C(Cc1ccccc1)Nc1cccc(NC(=O)c2ccccc2)c1 the AC50 was 9.89 µM.
With Cn1cccc1/C=C1\SC(=S)N(Nc2ccccc2)C1=O the AC50 was 2.31 µM.
Work on Fc1ccc(C(c2ccc(F)cc2)N2CCN(C/C=C/c3ccccc3)CC2)cc1 yielded an AC50 of 7.18 µM.
In the case of COc1ccc(/C=C(\C#N)c2c[nH]c3ccccc23)cc1, the AC50 is reported as 0.577 µM.
O=C(C[C@@H]1C/C=C/CC[C@H](Cc2ccc(F)cc2)C(=O)OC[C@@H](Cc2ccccc2)NC1=O)N[C@H](CO)Cc1ccccc1 gave an AC50 of 1.56 µM.
With O=C(NC12CC3CC(CC(C3)C1)C2)c1ccc(-c2ccccc2Cl)o1 the AC50 was 3.81 µM.
Work on CN(C)CCn1c2ccccc2c2nc3ccc([N+](=O)[O-])cc3cc21 yielded an AC50 of 15.6 µM.
Work on CN1CCN(c2ccccc2NC(=O)c2ccc(-c3ccc(Cl)cc3Cl)o2)CC1 yielded an AC50 of 6.57 µM.
CC(C)(C)c1nn(-c2ccccc2)c2[nH]c(=O)c(C=O)cc12 was tested, and the AC50 was 8.18 µM.
With O=C(N/N=C/c1cc([N+](=O)[O-])ccc1O)c1c[nH]c2ccccc12 the AC50 was 16.5 µM.
CC(C)C[C@@H](CO)N(Cc1ccccc1)S(=O)(=O)N(Cc1ccccc1)[C@@H](CO)CC(C)C gave an AC50 of 3.87 µM.
With CC(=O)Oc1ccc(-c2csc(Nc3ccc(Cl)cn3)n2)cc1 the AC50 was 4.6 µM.
O=C(Cc1ccc(Cl)cc1)Nc1ccc2c(c1)C(=O)NC2=O was tested, and the AC50 was > 19.5 µM (inactive).
For CCOC(=O)C1=C(C)NC(C)=C(C(=O)OCC)C1c1ccccc1/C=C/C(=O)OC(C)(C)C, the AC50 was 4.67 µM.
In the case of COc1cc(/C=C/C(=O)c2ccc(NS(=O)(=O)c3ccc(C)cc3)cc2)cc(OC)c1O, the AC50 is reported as 4.11 µM.
With C=CCn1c(=O)c(C(=O)NCCc2ccccc2)c(O)c2ccccc21 the AC50 was 5.77 µM.
With C/C(=N\NC(=O)c1cccc(Cl)c1)C1C(=O)c2ccccc2C1=O the AC50 was 20.1 µM.
With Cn1cnc(Sc2ncnc3nc[nH]c23)c1[N+](=O)[O-] the AC50 was 3.26 µM.
O=c1[nH]c(=O)n(C2C[C@H](O)[C@@H](CO)O2)cc1C(F)(F)F (stereo partly drawn) gave an AC50 of 0.946 µM.
Work on COc1ccc(NC(=O)c2cccc(-c3ccc(O)cc3)c2)cn1 yielded an AC50 of 7 µM.
In the case of O=C(NC(=S)Nc1ccccc1N1CCCCC1)c1ccc(F)cc1Cl, the AC50 is reported as 2.84 µM.
O=C(NC1CCCCC1)C(c1cccnc1)N(C(=O)CCl)c1ccc(F)cc1 (stereo not drawn) showed an AC50 of 3.47 µM.
In the case of Oc1ccccc1N1CCN(c2ncnc3sc(-c4ccccc4)cc23)CC1, the AC50 is reported as 3.53 µM.
Compound Clc1ccc2c(N/N=C/c3ccc(Br)cc3)ccnc2c1 has an AC50 of 7.56 µM.
For COCC(C)NC(=O)NC1(C(F)(F)F)Oc2ccc(Cl)cc2O1 (stereo not drawn), the AC50 was 18.3 µM.
With CC(C)c1ccc2c(c1)c(SC(C)(C)C)c(CC(C)(C)C(=O)O)n2Cc1ccc(Cl)cc1 the AC50 was 2 µM.
With COC(=O)c1c(NC(=O)c2ccccc2)sc2c1CC(C)(C)OC2 the AC50 was > 19.5 µM (inactive).
In the case of O=C(Nc1ccccc1Cc1ccccc1)c1ccccc1NS(=O)(=O)c1ccc(Cl)s1, the AC50 is reported as 1.84 µM.
Compound O=C(Nc1cccc(-c2csc(Nc3ccccc3)n2)c1)c1ccccc1 has an AC50 of 4.45 µM.
CN1CCN(c2ccccc2NC(=O)c2ccc(-c3ccc(Cl)c(Cl)c3)o2)CC1 gave an AC50 of 6.68 µM.
Compound C=CCNCCCOc1ccc(Cl)cc1C(C)(C)C has an AC50 of 14.9 µM.
With CCCCCCCC/C=C\CCCCCCCC(=O)NCCc1ccc(O)c(O)c1 the AC50 was 4.61 µM.
Compound Cc1c(-c2cccc(Cl)c2)nc2ccccc2c1C(=O)OC/C(O)=C(\C#N)c1nc2ccccc2[nH]1 has an AC50 of 3.12 µM.
For Cc1ccc(NS(=O)(=O)c2cc([N+](=O)[O-])ccc2NNC(=S)Nc2cc(C)ccc2C)c(C)c1, the AC50 was 2.6 µM.
CNC(C)C(=O)NC(C(=O)N1CCCC1C(=O)NNc1ccccc1)C(C)C (stereo not drawn) gave an AC50 of 6.41 µM.
COc1ccc2sc(-c3ccccc3OC)c(-c3ccc(O)cc3)c2c1 showed an AC50 of 6.71 µM.
Cc1ccc(CNc2cnn(C34CC5CC(CC(C5)C3)C4)c(=O)c2Cl)cc1 gave an AC50 of 2.44 µM.
COc1ccc(C)cc1NS(=O)(=O)c1ccc(NC(=O)CN(c2cc([N+](=O)[O-])ccc2C)S(C)(=O)=O)cc1 showed an AC50 of 3.8 µM.
For COc1ccc(-c2sc3ccccc3c2/C=C/c2ccncc2)cc1, the AC50 was 6.68 µM.
Compound CN1CCN(C2Cc3ccc(F)cc3Sc3cc(F)c(Cl)cc32)CC1 (stereo not drawn) has an AC50 of 5.49 µM.
Work on Fc1ccc(CSc2nc3ccccc3[nH]2)c2ccccc12 yielded an AC50 of 5.51 µM.
Work on COc1ccccc1-c1sc2cc3c(cc2c1C#Cc1cncn1C)OCO3 yielded an AC50 of 5.73 µM.
CN1CCN(c2ccc([N+](=O)[O-])c(NCc3ccco3)c2)CC1 gave an AC50 of 12.9 µM.
Compound CCCCNc1c(-c2ccc(OC)c(SC(C)CC)c2)nc2ccc(C)cn12 (stereo not drawn) has an AC50 of 6.78 µM.
Compound CCCCCc1cc(=O)oc2c(C(CCN3CCCCC3)c3cc(OC)c(OC)c(OC)c3)c(OC)cc(OC)c12 (stereo not drawn) has an AC50 of 6.95 µM.
